Results as given in patent US7205433B2, “Crystal of amino acid ester salt and process for producing the same” (Ajinomoto Co., Inc., priority 2002, dated 2007).

What was measured:
Format in all cases: physicochemical
[1] = Experimental Example 5: comparison of hygroscopicity by weight gain over time (60 to 66% RH); settings: 24 EC
Description: The L-Ala-OMe HCl salt, L-Ala-OEt MsOH salt, L-Ala-OEt BsOH salt, L-Ala-OEt 4-CBS salt, L-Ala-OEt 4-EBS salt, L-Ala-OEt 2,4-DMBS salt, and L-Ala-OEt 2,5-DMBS salt were measured in an amount of about 0.3 g each, left standing in a thermostatic chamber at a temperature of 24 EC and a humidity of 60 to 66% RH, and the hygroscopicity was compared based on the weight gain with the lapse of time.

[2] = Experimental Example 4: comparison of hygroscopicity by weight gain over time (40 to 46% RH); settings: 24° C.
Description: The L-Ala-OEt HCl salt, L-Ala-OEt MsOH salt, L-Ala-OEt BsOH salt, L-Ala-OEt 4-CBS salt, L-Ala-OEt 4-EBS salt, L-Ala-OEt 2,4-DMBS salt, and L-Ala-OEt 2,5-DMBS salt were measured in an amount of about 0.3 g each, left standing in a thermostatic chamber at a temperature of 24° C. and a humidity of 40 to 46% RH, and the hygroscopicity was compared based on the weight gain with the lapse of time. A part of the crystal of the L-Ala-OEt HCl salt was liquefied in 30 minutes, and the liquefied portion increased thereafter with the lapse of time. After 100 minutes, the whole mass became like a sherbet.

[3] = Experimental Example 1: comparison of hygroscopicity by weight gain over time (44 to 45% RH); settings: 22 to 24° C.
Description: L-Ala-OEt HCl salt and L-Ala-OEt MsOH salt were measured into in a glass container in an amount of 1.6 g each, dried in vacuo at 30° C. for 5 hours, left under conditions of temperature: 22 to 24° C., humidity: 44 to 45% RH, and then the hygroscopicity was compared based on the weight gain over the lapse of time. […] The liquefied portion increased with the lapse of time, and the entire salt became liquid 750 minutes later with no observable crystal.

[4] = Experimental Example 2: comparison of hygroscopicity by weight gain over time (62 to 64% RH); settings: 24° C.
Description: In the same manner as in Experimental Example 1, L-Ala-OEt MsOH salt and L-Ala-OMe HCl salt were measured into a glass container in an amount of 0.6 g each, left under conditions of temperature: 24° C., humidity: 62 to 64% RH, and then the hygroscopicity was compared based on the weight gain with the lapse of time.

[5] = Comparative Example 9: crystals left standing at room temperature; settings: left standing at room temperature for a while
Description: The crystals were separated and dried to give L-alanine methyl ester benzenesulfonate (L-Ala-OMe BsOH salt) crystals. The crystals were left standing at room temperature for a while.

With `CCOC(=O)[C@H](C)N.CS(=O)(=O)O` [L-Ala-OEt MsOH salt, L-alanine ethyl ester methanesulfonate] the “weight increase rate (%)” value ([1]; 0 minutes) was 0.00%, the “weight increase rate (%)” value ([1]; 10 minutes) was 0.32% and the “weight increase rate (%)” value ([1]; 20 minutes) was 0.35%. For the same compound, the “weight increase rate (%)” value ([1]; 35 minutes) was 0.38%, the “weight increase rate (%)” value ([1]; 50 minutes) was 0.38% and the “weight increase rate (%)” value ([1]; 65 minutes) was 0.41%. For the same compound, the “weight increase rate (%)” value ([1]; 80 minutes) was 0.44%, the “weight increase rate (%)” value ([1]; 95 minutes) was 0.44% and the “weight increase rate (%)” value ([1]; 110 minutes) was 0.48%. For the same compound, the “weight increase rate (%)” value ([1]; 125 minutes) was 0.44%, the “weight increase rate (%)” value ([1]; 140 minutes) was 0.48% and the “weight increase rate (%)” value ([1]; 155 minutes) was 0.48%. The “weight increase rate (%)” value ([1]; 170 minutes) was 0.51%, the “weight increase rate (%)” value ([1]; 185 minutes) was 0.48% and the “weight increase rate (%)” value ([1]; 200 minutes) was 0.51%. For the same compound, the “weight increase rate (%)” value ([2]; 0 minutes) was 0.00%, the “weight increase rate (%)” value ([2]; 15 minutes) was 0.03% and the “weight increase rate (%)” value ([2]; 30 minutes) was 0.03%. For the same compound, the “weight increase rate (%)” value ([2]; 45 minutes) was 0.00%, the “weight increase rate (%)” value ([2]; 60 minutes) was 0.19% and the “weight increase rate (%)” value ([2]; 75 minutes) was 0.35%. The “weight increase rate (%)” value ([2]; 90 minutes) was 0.35%, the “weight increase rate (%)” value ([2]; 120 minutes) was 0.42% and the “weight increase rate (%)” value ([2]; 150 minutes) was 0.39%. The “weight increase rate (%)” value ([2]; 180 minutes) was 0.55%, the “weight increase rate (% relative to initial weight)” value ([3]; 0 minutes) was 0.00% and the “weight increase rate (% relative to initial weight)” value ([3]; 1 minutes) was 0.08%. The “weight increase rate (% relative to initial weight)” value ([3]; 2 minutes) was 0.11%, the “weight increase rate (% relative to initial weight)” value ([3]; 3 minutes) was 0.17% and the “weight increase rate (% relative to initial weight)” value ([3]; 4 minutes) was 0.17%. The “weight increase rate (% relative to initial weight)” value ([3]; 6 minutes) was 0.23%, the “weight increase rate (% relative to initial weight)” value ([3]; 10 minutes) was 0.36% and the “weight increase rate (% relative to initial weight)” value ([3]; 15 minutes) was 0.41%. The “weight increase rate (% relative to initial weight)” value ([3]; 25 minutes) was 0.48%, the “weight increase rate (% relative to initial weight)” value ([3]; 35 minutes) was 0.56% and the “weight increase rate (% relative to initial weight)” value ([3]; 50 minutes) was 0.58%. The “weight increase rate (% relative to initial weight)” value ([3]; 60 minutes) was 0.59%, the “weight increase rate (% relative to initial weight)” value ([3]; 75 minutes) was 0.63% and the “weight increase rate (% relative to initial weight)” value ([3]; 90 minutes) was 0.57%. For the same compound, the “weight increase rate (% relative to initial weight)” value ([3]; 120 minutes) was 0.58%, the “weight increase rate (% relative to initial weight)” value ([3]; 150 minutes) was 0.58% and the “weight increase rate (% relative to initial weight)” value ([3]; 180 minutes) was 0.61%. The “weight increase rate (% relative to initial weight)” value ([3]; 750 minutes) was 1.16%, the “change in weight with the lapse of time” value ([3]; up to 750 minutes) was “almost no change in weight” and the liquefaction ([3]; up to 750 minutes) was “liquefaction was not observed”. The “weight increase rate (% relative to initial weight)” value ([4]; 0 minutes) was 0.00%, the “weight increase rate (% relative to initial weight)” value ([4]; 10 minutes) was 0.18% and the “weight increase rate (% relative to initial weight)” value ([4]; 20 minutes) was 0.26%. The “weight increase rate (% relative to initial weight)” value ([4]; 35 minutes) was 0.39%, the “weight increase rate (% relative to initial weight)” value ([4]; 50 minutes) was 0.53% and the “weight increase rate (% relative to initial weight)” value ([4]; 65 minutes) was 0.55%. For the same compound, the “weight increase rate (% relative to initial weight)” value ([4]; 80 minutes) was 0.63%, the “weight increase rate (% relative to initial weight)” value ([4]; 95 minutes) was 0.70% and the “weight increase rate (% relative to initial weight)” value ([4]; 110 minutes) was 0.78%. For the same compound, the “weight increase rate (% relative to initial weight)” value ([4]; 125 minutes) was 0.94%, the “weight increase rate (% relative to initial weight)” value ([4]; 140 minutes) was 1.01% and the “weight increase rate (% relative to initial weight)” value ([4]; 155 minutes) was 1.00%. The “weight increase rate (% relative to initial weight)” value ([4]; 170 minutes) was 1.13%, the “weight increase rate (% relative to initial weight)” value ([4]; 185 minutes) was 1.26% and the “weight increase rate (% relative to initial weight)” value ([4]; 200 minutes) was 1.32%. The “change in weight with the lapse of time” value ([4]; up to 200 minutes) was “not much change in weight” and the liquefaction ([4]; up to 200 minutes) was “liquefaction was not observed”.

For `COC(=O)[C@H](C)N.O=S(=O)(O)c1ccccc1` [L-Ala-OMe BsOH salt, L-alanine methyl ester benzenesulfonate], the “stability of the crystals” value [5] was “the crystals were liquefied and failed to provide stable crystals”.
